Experimental data as given in article PMC5960717 (Frontiers in Microbiology, 2018).

How the values were obtained:
[1] = target: T1, ScAlt1 (Saccharomyces cerevisiae, UniProt P52893); experiment: UV-visible shift, external Schiff base ([…] nm); type: binding; details: 50 mM KH2PO4, 4 mM MgCl2, PLP, covalent
T1 construct: gene ALT1; N-terminal His-tag (pET-28a), E. coli Rosetta 2 (DE3); theoretical monomer 61 kDa, SEC 147 kDa, dimer
T1 sequence (P52893 81-592): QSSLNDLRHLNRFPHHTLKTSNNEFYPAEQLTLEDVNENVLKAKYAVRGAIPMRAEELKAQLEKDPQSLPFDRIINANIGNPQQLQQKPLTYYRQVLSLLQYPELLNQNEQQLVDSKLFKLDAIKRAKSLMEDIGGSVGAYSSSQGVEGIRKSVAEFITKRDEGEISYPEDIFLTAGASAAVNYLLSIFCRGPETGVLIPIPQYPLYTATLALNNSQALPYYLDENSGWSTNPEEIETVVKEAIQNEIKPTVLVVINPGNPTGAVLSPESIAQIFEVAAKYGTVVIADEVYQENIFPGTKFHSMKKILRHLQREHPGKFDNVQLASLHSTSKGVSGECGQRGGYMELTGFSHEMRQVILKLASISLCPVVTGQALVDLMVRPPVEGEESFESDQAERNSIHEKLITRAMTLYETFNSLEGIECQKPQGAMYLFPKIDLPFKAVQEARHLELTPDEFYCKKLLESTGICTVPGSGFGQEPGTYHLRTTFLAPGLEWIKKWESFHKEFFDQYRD

[2] = target: T1, ScAlt1; experiment: intrinsic fluorescence titration ([…] nm); type: binding
[3] = target: T1, ScAlt1; experiment: UV-visible absorption of Schiff base ([…]-335 and […] nm), NaBH4 reduction; type: binding; details: covalent (reversible internal Schiff base, enolimine and ketoenamine); 50 mM K2HPO4, 4 mM MgCl2, pH 7.5, 100 μM PLP
[4] = target: T2, ScAlt2 (Saccharomyces cerevisiae, UniProt P52892); experiment: UV-visible absorption of Schiff base ([…] nm), NaBH4 reduction; type: binding; details: covalent (reversible internal Schiff base, ketoenamine); 50 mM K2HPO4, 4 mM MgCl2, pH 7.5, 100 μM PLP
T2 construct: gene ALT2; N-terminal His-tag (pET-28a), E. coli Rosetta 2 (DE3), 4°C expression; forward primer ATGACAATGACACACCAACAGG (MTMTHQQ); theoretical monomer 58 kDa, SEC 127 kDa, dimer
T2 sequence (P52892 1-507): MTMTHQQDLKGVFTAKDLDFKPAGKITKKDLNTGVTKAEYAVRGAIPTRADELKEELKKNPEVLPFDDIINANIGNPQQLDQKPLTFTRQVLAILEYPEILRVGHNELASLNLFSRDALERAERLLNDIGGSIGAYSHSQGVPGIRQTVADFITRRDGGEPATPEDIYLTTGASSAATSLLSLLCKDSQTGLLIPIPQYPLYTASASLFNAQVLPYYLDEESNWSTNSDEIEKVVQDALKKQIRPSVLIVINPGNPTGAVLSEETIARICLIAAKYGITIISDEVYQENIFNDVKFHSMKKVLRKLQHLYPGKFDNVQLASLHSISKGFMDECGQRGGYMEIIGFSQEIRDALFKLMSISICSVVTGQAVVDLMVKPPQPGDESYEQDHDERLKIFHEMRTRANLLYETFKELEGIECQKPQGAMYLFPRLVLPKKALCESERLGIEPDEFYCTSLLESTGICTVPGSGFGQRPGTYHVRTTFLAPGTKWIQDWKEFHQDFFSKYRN

[5] = target: the molecule itself; experiment: SEC; Superose 6 10/300 GL on an Akta FPLC; mobile phase 50 mM K2HPO4, 4 mM Mg2Cl, pH 7.5; calibrated with Bio-Rad molecular weight standards
[6] = substrate: C[C@H](N)C(=O)O; experiment: purified protein; details: varied alanine 2-15 mM and α-ketoglutarate 0.05-10 mM, 40 μM PLP, pH 7.5, 25°C, ping-pong, Ka here = Michaelis constant
[7] = substrate: O=C(O)CCC(=O)C(=O)O; experiment: purified protein; type: biochemical, Saccharomyces cerevisiae; details: varied alanine 2-15 mM and α-ketoglutarate 0.05-10 mM, 40 μM PLP, pH 7.5, 25°C, ping-pong, Ka here = Michaelis constant, co-substrate alanine
[8] = 1 μl of 81 mM stock added to 10 μl protein

N[C@@H](CCC(=O)O)C(=O)O [glutamate]
UV-visible shift, external Schiff base (325 nm) [1, 8]: ScAlt1 could form external Schiff base with glutamate, serine, cysteine, histidine, and aspartic acid

N[C@@H](CC(=O)O)C(=O)O [aspartic acid]
UV-visible shift, external Schiff base (325 nm) [1, 8]: ScAlt1 could form external Schiff base with glutamate, serine, cysteine, histidine, and aspartic acid

C[C@H](N)C(=O)O [alanine]
Kd [2]: 1000 ± 100 µM

N[C@@H](CO)C(=O)O [serine]
UV-visible shift, external Schiff base (325 nm) ([1]; 1 μl of 23 mM stock added to 10 μl protein): ScAlt1 could form external Schiff base with glutamate, serine, cysteine, histidine, and aspartic acid

Cc1ncc(COP(=O)(O)O)c(C=O)c1O [PLP]
UV-visible absorption of Schiff base (330-335 and 420 nm), NaBH4 reduction [3]: both, ScAlt1 and ScAlt2 have PLP attached through a Schiff base | UV-visible absorption of Schiff base (420 nm), NaBH4 reduction [4]: both, ScAlt1 and ScAlt2 have PLP attached through a Schiff base

N[C@@H](CS)C(=O)O [cysteine]
UV-visible shift, external Schiff base (325 nm) ([1]; 1 μl of 238 mM stock added to 10 μl protein): ScAlt1 could form external Schiff base with glutamate, serine, cysteine, histidine, and aspartic acid

N[C@@H](Cc1cnc[nH]1)C(=O)O [histidine]
UV-visible shift, external Schiff base (325 nm) ([1]; 1 μl of 20 mM stock added to 10 μl protein): ScAlt1 could form external Schiff base with glutamate, serine, cysteine, histidine, and aspartic acid

B1: ScAlt1 (Saccharomyces cerevisiae alanine transaminase), recombinant, without the mitochondrial localization sequence (enzyme, S. cerevisiae, UniProt P52893 65-592, looked up)
chain: SSSWIVAQNHRRSLSGQSSLNDLRHLNRFPHHTLKTSNNEFYPAEQLTLEDVNENVLKAKYAVRGAIPMRAEELKAQLEKDPQSLPFDRIINANIGNPQQLQQKPLTYYRQVLSLLQYPELLNQNEQQLVDSKLFKLDAIKRAKSLMEDIGGSVGAYSSSQGVEGIRKSVAEFITKRDEGEISYPEDIFLTAGASAAVNYLLSIFCRGPETGVLIPIPQYPLYTATLALNNSQALPYYLDENSGWSTNPEEIETVVKEAIQNEIKPTVLVVINPGNPTGAVLSPESIAQIFEVAAKYGTVVIADEVYQENIFPGTKFHSMKKILRHLQREHPGKFDNVQLASLHSTSKGVSGECGQRGGYMELTGFSHEMRQVILKLASISLCPVVTGQALVDLMVRPPVEGEESFESDQAERNSIHEKLITRAMTLYETFNSLEGIECQKPQGAMYLFPKIDLPFKAVQEARHLELTPDEFYCKKLLESTGICTVPGSGFGQEPGTYHLRTTFLAPGLEWIKKWESFHKEFFDQYRD
notes: ScAlt1, alanine transaminase of S. cerevisiae, amplified from genomic DNA of strain CLA1; no residue limits are stated; the forward primer (CATATGCAATCTTCGCTAAACGACCTGC) places the start at Met-QSSLNDL; the reverse primer appears to lie after the stop codon; theoretical monomer mass printed as 61 kDa; The start of the construct can be worked out from the printed forward primer …
stoichiometry N [5]: 2

B2: ScAlt2 (Saccharomyces cerevisiae presumed alanine transaminase paralogue), recombinant (enzyme, S. cerevisiae, UniProt P52892 1-507, looked up)
chain: MTMTHQQDLKGVFTAKDLDFKPAGKITKKDLNTGVTKAEYAVRGAIPTRADELKEELKKNPEVLPFDDIINANIGNPQQLDQKPLTFTRQVLAILEYPEILRVGHNELASLNLFSRDALERAERLLNDIGGSIGAYSHSQGVPGIRQTVADFITRRDGGEPATPEDIYLTTGASSAATSLLSLLCKDSQTGLLIPIPQYPLYTASASLFNAQVLPYYLDEESNWSTNSDEIEKVVQDALKKQIRPSVLIVINPGNPTGAVLSEETIARICLIAAKYGITIISDEVYQENIFNDVKFHSMKKVLRKLQHLYPGKFDNVQLASLHSISKGFMDECGQRGGYMEIIGFSQEIRDALFKLMSISICSVVTGQAVVDLMVKPPQPGDESYEQDHDERLKIFHEMRTRANLLYETFKELEGIECQKPQGAMYLFPRLVLPKKALCESERLGIEPDEFYCTSLLESTGICTVPGSGFGQRPGTYHVRTTFLAPGTKWIQDWKEFHQDFFSKYRN
notes: ScAlt2 of S. cerevisiae, amplified from genomic DNA of strain CLA1; the forward primer starts at ATGACAATGACACACCAACAGG (MTMTHQQ) and the reverse primer holds the stop codon (TCA ATT ACG ATA ...); theoretical monomer mass printed as 58 kDa; source: E. coli Rosetta 2 (DE3), pET-28a(+), purified (Ni-NTA)
stoichiometry N [5]: 2

B3: ScAlt1 (Saccharomyces cerevisiae S288C) (protein)
chain: QSSLNDLRHLNRFPHHTLKTSNNEFYPAEQLTLEDVNENVLKAKYAVRGAIPMRAEELKAQLEKDPQSLPFDRIINANIGNPQQLQQKPLTYYRQVLSLLQYPELLNQNEQQLVDSKLFKLDAIKRAKSLMEDIGGSVGAYSSSQGVEGIRKSVAEFITKRDEGEISYPEDIFLTAGASAAVNYLLSIFCRGPETGVLIPIPQYPLYTATLALNNSQALPYYLDENSGWSTNPEEIETVVKEAIQNEIKPTVLVVINPGNPTGAVLSPESIAQIFEVAAKYGTVVIADEVYQENIFPGTKFHSMKKILRHLQREHPGKFDNVQLASLHSTSKGVSGECGQRGGYMELTGFSHEMRQVILKLASISLCPVVTGQALVDLMVRPPVEGEESFESDQAERNSIHEKLITRAMTLYETFNSLEGIECQKPQGAMYLFPKIDLPFKAVQEARHLELTPDEFYCKKLLESTGICTVPGSGFGQEPGTYHLRTTFLAPGLEWIKKWESFHKEFFDQYRD
notes: N-terminal His-tag (pET-28a), E. coli Rosetta 2 (DE3); theoretical monomer 61 kDa, SEC 147 kDa, dimer
Km [6]: 10.39 ( ± 1.12) mM | kcat [6]: 698 s⁻¹ | Km [7]: 0.67 ( ± 0.06) mM | kcat [7]: 698 s⁻¹
